# According to US20060009433A1, “Neuroprotective spirostenol pharmaceutical compositions” (priority 2003, published 2006):
# Entries after “also recorded” stand apart in the source; their conditions may differ.
# Assays:
# [1] = test system: Mouse embryonic teratocarcinoma P19 cells; assay: Neurites-like sprouting in P19 cells; assay type: cell-based; conditions: 90 μM, 2 days, then 5 days wash-out
# Method: (§1) Mouse embryonic teratocarcinoma P19 cells were cultured at 37° C. in […] in Alpha Minimum Essential medium with ribonucleosides and deoxyribonucleosides containing bovine calf serum (7.5%) and fetal bovine serum (2.5%) on 13 mm diameter glass cover-slip. PC12 cells (rat pheochromocytoma neurons) were cultured at 37° C. and 5% CO2 in RPMI 1640 medium devoid of glutamine and supplemented with 10% fetal bovine serum and 5% horse serum on 13 mm diameter glass cover-slip. When cells reached 70% confluence, the medium was replaced fresh medium containing 90 μM SP-224. P19 and PC12 cells were then incubated for 2 days before SP224 was washed out and replaced by standard medium. The culture medium was changed every 2 days for 5 days or every 2 days for 30 days before cells were fixed for immunocytochemistry. The NT2 cells were treated for 5 days and washed-out for 10 days.
# (§2) The above-referenced cell lines were used because they have been extensively used as a model of neuronal differentiation (Houldsworth et al., 2002; Chou et al., 2003; Das et al., 2004). To induce the sprouting, cells were plated in 6-well plates and treated for 2 days (P19) or 5 days (PC12 and NT2) with 90 μM SP-224 before being washed with fresh medium and cultured for 5 (P19) or 10 (PC12 and NT2) more days. […] Meantime, we observed a growth arrest of the treated-cells. […]
# [2] = test system: PC12 rat pheochromocytoma cells; assay: Neurites-like sprouting in PC12 cells; assay type: cell-based; conditions: 90 μM, then wash-out
# Method: as §1, §2
# [3] = test system: NT2 human neuronal cells; assay: Neurites-like sprouting in NT2 cells; assay type: cell-based; conditions: 90 μM, 5 days, then 10 days wash-out
# Method: as §1, §2
# [4] = test system: P19 cells; assay: Neuronal and glial markers in differentiated P19 cells (immunocytochemistry); assay type: cell-based, mouse
# Method: as §1
# P19 cells were fixed with methanol at −20° C. for 15 minutes before being permeabilized for 30 minutes at room temperature with 1×PBS pH=7.4 containing 0.1% Triton 100×. Cell were incubated for 24 hours at 4° C. with antibodies raised against GAP43 (1/1000), DCX (1/3000), βIII Tubulin (1/500), synaptophysin (1/200), MAP2 (1/500), ChAT (1/2000), GFAP (1/1000) or CNPase (1/250). […] Cells nucleus was counterstained using DAPI or ethidium bromide.
# The ability of SP-224 to induce the neuronal differentiation of the P19 cells was assessed as follows. P19 cells were treated for 2 days followed by a 5 days wash out period (FIG. 26). The neuronal markers expression was also studied after 28 days (FIG. 27) in order to in order to verify whether the expression observed at 5 days was temporary or permanent. No neuronal marker was observed on the control except for the synaptophysin for which the staining was, however, very weak (FIG. 26C). […] After 28 days of wash out the neuronal differentiation is even more important.
# [5] = test system: neural stem cells in the sub-ventricular zone (SVZ) of the rat brain; assay: In vivo i.c.v. infusion, neural stem cells of the SVZ (BrdU, DCX immunohistochemistry)
# Method: Male Long-Evans rats weighing 300-325 g (3-4 months old) were housed following a natural day-night cycle with food and water ad libitum. Prior to surgery, rats were anesthetized with equithesin (3 ml/kg, i.p.) and then placed on a stereotaxic frame. Using an electrode micromanipulator, the outlet of an osmotic micropump was implanted into the left cerebral ventricle following the coordinates D=3.4 mm, L=1.4 mm and AP=0.92 mm caudal to bregma. The tank of the osmotic pump was implanted in a subcutaneous pocket in the midscapular area of the back of the rat. After surgery, rats were placed on a heating blanket for recovery. During the whole procedure, the body temperature was monitored and kept stable at 37° C. SP-224 at 375 μM solubilized in polypropylene glycol/glycerol/distilled water (50/25/25) was perfused by i.c.v. route at 5 μl per hour for 2 weeks. Rats were sacrificed 3 weeks after the end of the brain infusion by intracardiac perfusion, first with a washing solution (NaCl 8 g/l, dextrose 4 g/l, sucrose 8 g/l, calcium chloride 0.23 g/l, sodium cacodylate anhydrous 0.25 g/l, in deionized water) and then with fixative cacodylate buffer (sucrose 40 g/l, paraformaldehyde 40 g/l, sodium cacodylate anhydrous 10.72 g/l, in deionized water). Brains were stored in fixative cacodylate buffer for an additional week before being embedded in paraffin. To study the neural stem cells proliferation rats were daily injected with a BrdU solution at 100 mg/kg. The first injection took place the day following the surgery and the last injection was performed the day previous to the euthanasia.
# Brains were embedded in a paraffin block […] and cut into 20-μm thick slices.
# This experiment was conducted to validate the results obtained in vitro and to assess the ability of the SP-224 to induce a neuronal differentiation of the neural stem cells present in the sub-ventricular zone (SVZ) of the rat brain. The SP-224 was administered in a solution at 375 μM by intra-cerebroventricular route for 2 weeks, corresponding to a total quantity of […] of SP-224 per rat. […]
# [6] = 2 days treatment, 28-30 days wash out
# [7] = 375 μM i.c.v., 5 μl per hour for 2 weeks, sacrifice 3 weeks later
smiles,measurement,setting,value
"CC1CCC2(NC1)OC1CC3C4CC=C5CC(O)CCC5(C)C4CCC3(C)C1C2C [SP224, (20α)-25ζ-methyl-(22R,26)-azacyclofurost-5-en-3ζ-ol]",sprouting of P19 cells,[1],significant sprouting
same,sprouting of PC12 cells,[2],significant sprouting
same,sprouting of NT2 cells,[3],significant sprouting
same,astrocyte marker GFAP / differentiation into astrocytes,"[4]; 90 μM 2 days, 5 days SP-224 free medium",no positive GFAP signal was detected; also recorded: did not trigger the differentiation of the P19 cells into astrocytes
same,expression of ChAT,"[4]; 90 μM 2 days, 5 days wash out",strong expression
same,expression of MAP2,"[4]; 90 μM 2 days, 5 days wash out",strong expression
same,expression of migrating neuroblasts marker DCX,"[4]; 90 μM 2 days, 5 days wash out",strongly expressed
same,expression of synaptophysin,"[4]; 90 μM 2 days, 5 days wash out",strong expression
same,expression of βIII tubulin,"[4]; 90 μM 2 days, 5 days wash out",strong expression
same,network of axons and dendrites (βIII tubulin staining),[4]; [6],dramatically extended
same,synaptophysin labeling,[4]; [6],established synaptic connections
same,toxic effect on the brain tissue,[5]; 375 μM i.c.v. for 2 weeks,without any apparent toxic effect on the brain tissue
same,"BrdU immunostaining, neural stem cell self-renewal/proliferation in the SVZ",[5]; [7],able to induce a self-renewal of the neural stem cells in the SVZ; also recorded: dramatic increase of the BrdU
same,expression of early neuronal marker DCX in the SVZ cells,[5]; [7],induced the expression of the early neuronal marker DCX
